Data as given in ChEMBL document CHEMBL1137106, “Piperazinebenzylamines as potent and selective antagonists of the human melanocortin-4 receptor” (Bioorg Med Chem Lett, 2004).

How the values were obtained:
[1] = biological target: T1, Melanocortin receptor 4 (Homo sapiens, UniProt P32245); assay: Binding affinity towards human melanocortin 4 receptor expressed in HEK 293 cells was determined by using [125I]NDP-MSH as radioligand; assay type: cell-based, HEK293
[2] = system: Cell line; assay: Percentage of alpha-MSH stimulated cAMP level at 10 uM; assay type: functional, Homo sapiens
[3] = system: Cell line; assay: Effective concentration required for alpha-MSH stimulated cAMP production at 10 uM; assay type: functional, cell-based; details: Homo sapiens
[4] = system: Cell line; assay: Effective concentration required for alpha-MSH stimulated cAMP production; assay type: functional, cell-based; details: Homo sapiens
[5] = system: Cell line; assay: Concentration required for inhibition of alpha-MSH stimulated cAMP production by 50%; assay type: functional, cell-based; details: Homo sapiens
[6] = biological target: T2, Melanocyte-stimulating hormone receptor (Homo sapiens, UniProt Q01726); assay: Binding affinity towards human melanocortin 1 receptor expressed in HEK 293 cells was determined by using [125I]NDP-MSH as radioligand; assay type: cell-based, HEK293
Target sequence in this assay (Q01726 whole entry): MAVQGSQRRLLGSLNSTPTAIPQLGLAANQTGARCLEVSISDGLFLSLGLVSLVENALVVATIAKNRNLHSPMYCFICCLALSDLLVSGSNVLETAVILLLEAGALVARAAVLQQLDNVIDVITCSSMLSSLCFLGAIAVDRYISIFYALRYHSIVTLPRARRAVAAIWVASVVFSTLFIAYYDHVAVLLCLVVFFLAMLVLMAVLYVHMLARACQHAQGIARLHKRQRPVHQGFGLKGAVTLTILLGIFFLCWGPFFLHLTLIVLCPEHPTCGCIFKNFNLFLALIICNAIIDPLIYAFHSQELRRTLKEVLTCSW

[7] = biological target: Melanocortin receptor 3 (Homo sapiens, UniProt P41968); assay: Binding affinity towards human melanocortin 3 receptor expressed in HEK 293 cells was determined by using [125I]NDP-MSH as radioligand; assay type: cell-based, HEK293
Chain of Melanocortin receptor 3 (P41968 whole entry): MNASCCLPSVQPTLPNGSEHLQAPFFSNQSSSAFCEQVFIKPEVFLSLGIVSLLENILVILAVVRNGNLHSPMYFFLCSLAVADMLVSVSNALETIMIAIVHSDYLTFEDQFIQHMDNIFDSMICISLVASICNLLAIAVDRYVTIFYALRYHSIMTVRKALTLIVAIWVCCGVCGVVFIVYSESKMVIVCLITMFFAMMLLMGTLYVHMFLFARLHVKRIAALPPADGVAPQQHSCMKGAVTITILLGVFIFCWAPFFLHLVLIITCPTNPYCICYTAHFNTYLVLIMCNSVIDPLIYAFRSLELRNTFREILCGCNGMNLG

[8] = biological target: Melanocortin receptor 5 (Homo sapiens, UniProt P33032); assay: Binding affinity towards human melanocortin 5 receptor expressed in HEK 293 cells was determined by using [125I]NDP-MSH as radioligand; assay type: cell-based, HEK293
Chain of Melanocortin receptor 5 (P33032 whole entry): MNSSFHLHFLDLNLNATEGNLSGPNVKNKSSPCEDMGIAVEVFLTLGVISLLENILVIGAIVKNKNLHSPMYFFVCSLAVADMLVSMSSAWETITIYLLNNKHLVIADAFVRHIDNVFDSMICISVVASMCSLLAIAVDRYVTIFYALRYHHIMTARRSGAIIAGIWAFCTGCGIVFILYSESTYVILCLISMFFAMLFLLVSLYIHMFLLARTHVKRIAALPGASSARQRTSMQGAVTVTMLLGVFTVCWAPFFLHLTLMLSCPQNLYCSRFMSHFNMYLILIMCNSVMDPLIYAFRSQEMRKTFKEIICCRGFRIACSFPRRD

[9] = biological target: T1, Melanocortin receptor 4; assay: Tested for inhibition of binding to MC4 receptor
[10] = Tested for inhibition of NDP-MSH binding; assay type: functional
[11] = biological target: T2, Melanocyte-stimulating hormone receptor; assay: Percent inhibition of [125I]NDP-MSH binding to human melanocortin 1 receptor expressed in HEK 293 cells at 10 uM; assay type: cell-based; details: HEK293
Target sequence in this assay (Q01726 whole entry, looked up): as the sequence (Q01726 whole entry) above

T1 sequence (P32245 whole entry): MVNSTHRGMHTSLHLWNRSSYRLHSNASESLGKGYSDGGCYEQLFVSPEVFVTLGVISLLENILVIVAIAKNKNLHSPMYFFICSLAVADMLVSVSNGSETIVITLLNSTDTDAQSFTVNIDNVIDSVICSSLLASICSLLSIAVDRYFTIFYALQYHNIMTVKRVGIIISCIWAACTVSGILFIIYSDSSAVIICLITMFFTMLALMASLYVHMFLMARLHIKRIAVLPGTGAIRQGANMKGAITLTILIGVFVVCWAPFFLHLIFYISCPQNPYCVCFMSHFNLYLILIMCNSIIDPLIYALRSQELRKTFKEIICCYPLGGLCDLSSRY

Compound | Ki [1] [µM] | IA [2] [%] | EC50 [3] [µM] | other results
CC(NCCN1CCCCC1)c1ccccc1N1CCN(C(=O)[C@@H](Cc2ccc(Cl)cc2)NC(=O)CCN)CC1 (some centres not stated) | 0.21 | 41 | – | –
CC(NCc1ccco1)c1ccccc1N1CCN(C(=O)[C@@H](Cc2ccc(Cl)cc2)NC(=O)CCN)CC1 (some centres not stated) | 0.14 | 99 | 1.87 | –
O=C(CC1CCCN1)N[C@H](Cc1ccc(Cl)cc1)C(=O)N1CCN(c2ccccc2CNCCc2cccs2)CC1 (some centres not stated) | 0.04 | 57 | 1.8 | –
CC(NC1CCCNC1)c1ccccc1N1CCN(C(=O)[C@@H](Cc2ccc(Cl)cc2)NC(=O)[C@H]2Cc3ccccc3CN2)CC1 (some centres not stated) | – | – | – | EC50 [4]: 0.0038 µM
CC(C)(C(=O)N1CCN(c2ccccc2CNCCc2cccs2)CC1)c1ccc(Cl)cc1 | 3.8 | <45 | – | –
CC(N[C@@H]1CCCC[C@H]1N)c1ccccc1N1CCN(C(=O)[C@@H](Cc2ccc(Cl)cc2)NC(=O)CCN)CC1 (some centres not stated) | 0.15 | 64 | 0.59 | –
O=C(N[C@H](Cc1ccc(Cl)cc1)C(=O)N1CCN(c2ccccc2CNCCc2cccs2)CC1)[C@H]1Cc2ccccc2CN1 | – | 100 | 0.32 | –
O=C(CCc1ccc(Cl)cc1)N1CCN(c2ccccc2CNCCc2cccs2)CC1 | 1 | <45 | – | –
O=C(N[C@H](Cc1ccc(Cl)cc1)C(=O)N1CCN(c2ccccc2CNCCc2cccs2)CC1)C1CCCNC1 (some centres not stated) | 0.015 | 12 | – | IC50 [5]: 0.036 µM; Ki [6]: 2.3 µM; Ki [7]: 1.4 µM; Ki [8]: 0.72 µM
N[C@H](Cc1ccc(Cl)cc1)C(=O)N1CCN(c2ccccc2CNCCc2cccs2)CC1 | 0.6 | 85 | 8.7 | –
NCCC(=O)OC(Cc1ccc(Cl)cc1)C(=O)N1CCN(c2ccccc2CNCCc2cccs2)CC1 (configuration not stated) | 0.29 | <45 | – | –
CN(CCc1cccs1)Cc1ccccc1N1CCN(C(=O)[C@@H](Cc2ccc(Cl)cc2)NC(=O)CCN)CC1 | 0.22 | 32 | – | –
CN(C)CC(=O)N[C@H](Cc1ccc(Cl)cc1)C(=O)N1CCN(c2ccccc2CNCCc2cccs2)CC1 | 0.038 | 45 | 1.4 | –
O=C(N[C@H](Cc1ccc(Cl)cc1)C(=O)N1CCN(c2ccccc2CNCCc2cccs2)CC1)C1CCN1 (some centres not stated) | 0.048 | 47 | 1.63 | –
O=C(N[C@H](Cc1ccc(Cl)cc1)C(=O)N1CCN(c2ccccc2CNCCc2cccs2)CC1)C1CCCCN1 (some centres not stated) | 0.075 | 60 | 1.1 | –
COc1ccc(Br)cc1CCc1c(F)cccc1-c1ncc[nH]1 | – | – | – | Ki [9]: 0.16 µM
NCCCC(=O)N[C@H](Cc1ccc(Cl)cc1)C(=O)N1CCN(c2ccccc2CNCCc2cccs2)CC1 | 0.014 | 15 | – | IC50 [5]: 0.066 µM; Ki [6]: 1.2 µM; Ki [7]: 1.4 µM; Ki [8]: 1 µM
O=C([C@@H](Cc1ccc(Cl)cc1)NS(=O)(=O)CC(F)(F)F)N1CCN(c2ccccc2CNCCc2cccs2)CC1 | 0.41 | <45 | – | –
CC(NCCc1cccs1)c1ccccc1N1CCN(C(=O)[C@@H](Cc2ccc(Cl)cc2)NC(=O)CCN)CC1 (some centres not stated) | 0.11 | 32 | – | –
O=C(C(O)c1ccc(Cl)cc1)N1CCN(c2ccccc2CNCCc2cccs2)CC1 (configuration not stated) | > 10 | <45 | – | –
CC(CN1CCN(CC(c2ccc(F)cc2)N2CCN(C)CC2)CC1)C(=O)c1ccccc1 (configuration not stated) | – | – | – | IC50 [10]: 0.22 µM
CC(C)CC(N)C(=O)N[C@H](Cc1ccc(Cl)cc1)C(=O)N1CCN(c2ccccc2CNCCc2cccs2)CC1 (some centres not stated) | 0.03 | 45 | 2.6 | –
NC(Cc1ccc(Cl)cc1)C(=O)N1CCN(c2ccccc2CNCCc2cccs2)CC1 (configuration not stated) | 3.9 | <45 | – | –

Compound | Ki [1] [µM] | IA [2] [%] | EC50 [3] [µM] | other results
O=C(N[C@H](Cc1ccc(Cl)cc1)C(=O)N1CCN(c2ccccc2CNCCc2cccs2)CC1)C1CCCN1 (some centres not stated) | 0.05 | 56 | 1.9 | –
COc1ccc(Br)cc1CCc1c(Cl)cccc1-c1nc(C)c[nH]1 | – | – | – | Ki [9]: 0.18 µM
NCC(Cc1ccc(Cl)cc1)C(=O)N1CCN(c2ccccc2CNCCc2cccs2)CC1 (configuration not stated) | 6.4 | <45 | – | –
O=C(N[C@H](Cc1ccc(Cl)cc1)C(=O)N1CCN(c2ccccc2Cn2cncn2)CC1)[C@H]1Cc2ccccc2CN1 | – | – | – | EC50 [4]: 0.08 µM
CC(NCCNc1cccc2ccccc12)c1ccccc1N1CCN(C(=O)[C@@H](Cc2ccc(Cl)cc2)NC(=O)CCN)CC1 (some centres not stated) | 0.29 | 22 | – | –
NC(CC(=O)N1CCN(c2ccccc2CNCCc2cccs2)CC1)c1ccc(Cl)cc1 (configuration not stated) | 5.4 | <45 | – | –
NCCC(=O)N[C@H](Cc1ccc(Cl)cc1)C(=O)N1CCN(c2ccccc2CNCCc2cccs2)CC1 | 0.021 | 14 | – | IC50 [5]: 0.09 µM; Ki [6]: 1.3 µM; Ki [7]: 1 µM; Ki [8]: 1 µM
CC(Nc1ccccc1N)c1ccccc1N1CCN(C(=O)[C@@H](Cc2ccc(Cl)cc2)NC(=O)CCN)CC1 (some centres not stated) | 0.47 | 56 | 2.72 | –
CC(c1ccccc1N1CCN(C(=O)[C@@H](Cc2ccc(Cl)cc2)NC(=O)CCN)CC1)N1CCN(c2ccccc2)CC1 (some centres not stated) | 0.43 | 35 | – | –
COc1ccc2ccccc2c1CCCCN1CCN(CC(c2ccc(F)cc2)N2CCN(C)CC2)CC1 (configuration not stated) | – | – | – | Ki [9]: 0.0079 µM
CCC(NCCc1cccs1)c1ccccc1N1CCN(C(=O)[C@@H](Cc2ccc(Cl)cc2)NC(=O)CCN)CC1 (some centres not stated) | 0.14 | 29 | – | –
CC(c1ccccc1N1CCN(C(=O)[C@@H](Cc2ccc(Cl)cc2)NC(=O)CCN)CC1)N1CCN(C)CC1 (some centres not stated) | 0.086 | 59 | 0.471 | –
CC(C)(N)C(=O)N[C@H](Cc1ccc(Cl)cc1)C(=O)N1CCN(c2ccccc2CNCCc2cccs2)CC1 | 0.066 | 80 | 1.5 | –
NC(Cc1ccccc1Cl)C(=O)N1CCN(c2ccccc2CNCCc2cccs2)CC1 (configuration not stated) | 1 | <45 | – | –
NC(C(=O)N1CCN(c2ccccc2CNCCc2cccs2)CC1)c1ccc(Cl)cc1 (configuration not stated) | 1.8 | <45 | – | –
O=C(N[C@H](Cc1ccc(Cl)cc1)C(=O)N1CCN(c2ccccc2CNCCc2cccs2)CC1)C1CCNCC1 | 0.026 | 39 | – | –
O=C(N[C@H](Cc1ccc(Cl)cc1)C(=O)N1CCN(c2ccccc2CNCCc2cccs2)CC1)c1cccnc1 | 0.041 | 5 | – | IC50 [5]: 0.88 µM; Ki [7]: 1.8 µM; Ki [8]: 0.73 µM; inhibition [11]: 23%
COCC(=O)N[C@H](Cc1ccc(Cl)cc1)C(=O)N1CCN(c2ccccc2CNCCc2cccs2)CC1 | 0.07 | 16 | – | –
NC1(C(=O)N[C@H](Cc2ccc(Cl)cc2)C(=O)N2CCN(c3ccccc3CNCCc3cccs3)CC2)CC1 | 0.046 | 12 | – | –
NCC(=O)N[C@H](Cc1ccc(Cl)cc1)C(=O)N1CCN(c2ccccc2CNCCc2cccs2)CC1 | 0.044 | 77 | 0.58 | Ki [7]: 1.9 µM; Ki [8]: 0.99 µM; inhibition [11]: 50%
CC(NCc1ccccc1N)c1ccccc1N1CCN(C(=O)[C@@H](Cc2ccc(Cl)cc2)NC(=O)CCN)CC1 (some centres not stated) | 0.12 | 100 | 0.364 | –
O=C(Cc1ccc(Cl)cc1)N1CCN(c2ccccc2CNCCc2cccs2)CC1 | > 10 | <45 | – | –
